Reference: US8288390B2, “Benzofuran derivatives” (Takeda Pharmaceutical Company Limited, priority 2009, dated 2012)

Tests used:
Akt protein = assay: Activity of inhibiting Akt protein degradation in rat mixed glial culture; format: cell-based; conditions: compound 1 μM + rhIGF-1 100 ng/ml, 10 minutes at 37° C.; Akt calibrated with ERK; no addition = 100%, rhIGF-1 only = 0%
Protocol: The mixed glial cells used in the Test example 1 were seeded on a 6-well plate coated with collagen Type I (manufactured by Asahi Techno Glass Co., Ltd.) to 4×10^6 cells/well. Under the condition of 37° C. and 5% CO2, the cells were cultured for four days in a growth medium (D-MEM/F12 with 10% FBS, comprising PS). After that, the medium was exchanged with a serum-free medium (D-MEM/F12, comprising PS) and the cells were subjected to starvation for 4 hours under the condition of 37° C. and 5% CO2.
Next, rhIGF-1 (R&D Systems, 291-G1-250, final concentration 100 ng/ml) and the compound were added to obtain 1 μM and reacted in a water bath incubator at 37° C. for 10 minutes. Culture supernatant was aspirated off, 150 μL of RIPA (50 mM Tris-HCl pH7.5, 5 mM EDTA, 100 mM NaCl, 30 mM NaF, 5 mM sodium diphosphate, 137 mg/l pepstatin A, 2.5 KIU/l aprotinin, 1% NP-40, 6 mM sodium deoxycholate, 1 μM microcystinLR, 1 μM Z-Leu-Leu-Nva-H(aldehyde), 48 μM leupeptin, 96 μM 4-(2-aminoethyl)benzenesulfonyl fluoride-HCl, 1 mM sodium orthovanadate) was added thereto, and the reaction was terminated. After the termination of the reaction, the cell lysate was recovered by using a cell scraper on ice. Finally, the cell lysate was centrifuged for 30 minutes at 15000 rpm and the supernatant was taken as a cell extract.
Proteins were recovered from the cell extract by using trichloroacetic acid, and quantified according to Lowry method. Standard curve was established with bovine serum albumin. Based on the measured values, each cell extract was diluted with RIPA to prepare it in constant concentration (10 μg/lane). SDS-PAGE was carried out under reducing condition using 10% acrylamide (45 mA, 1.5 hours). After transferring to a PVDF membrane (0.13 A, 1 hour), reaction with an antibody was carried out. As a primary antibody, Akt (Cell Signaling, 9272) and ERK (Santa Cruz, sc-94) were used with the dilution ratio of 1000. As a secondary antibody, HRP-labeled anti-rabbit antibody (NA9340V, manufactured by Amersham) was used with the dilution ratio of 12500. Then, using ImmunoStar reagent (291-55203, manufactured by Wako Pure Chemical Industries, Ltd.), X-ray film detection was carried out. Quantification of the results was carried out by using GS-800 Calibrated Densitometer (manufactured by BioRad), and then the band strength was converted into the numerals by multiplying the absorbance originating from bands of Akt and ERK-1&2 by the area. Akt was calibrated with ERK to give the numeral values.
Inhibitory activity on Akt degradation was expressed as inhibition ratio. Specifically, the case in which neither the compound nor rhIGF-1 was added (no addition) is 100% and the case in which only rhIGF-1 was added is 0%, and then with the value measured from compound+rhIGF-1, the inhibition ratio was obtained. Inhibition ratio(%)=[(compound+rhIGF-1)−(rhIGF-1)]÷[(no addition)−(rhIGF-1)]×100

rat mixed glial culture = assay: Activity of promoting neuronal neogenesis in rat mixed glial culture; format: cell-based; conditions: compound 1 μM + rhIGF-1 100 ng/ml, 3 days culture, absorbance at 450 nm (class III beta-tubulin antibody), control rhIGF-1 only = 100%; for activity at 1 µM: Rattus norvegicus, 72 h, read-out: Increase Ratio of the Absorbance (% control)
Protocol: From a three-day old SD rat, hippocampus and cerebral cortex were removed. By using a kit of dispersion liquid for neuronal cells (MB-X9901, manufactured by SUMITOMO BAKELITE CO., LTD.), cell suspension was prepared and then seeded on a 96-well plate coated with collagen Type I (4860-010, manufactured by Asahi Techno Glass Co., Ltd.) to 10^5 cells/well. Under the condition of 37° C. and 5% CO2, the cells were cultured for four days in a growth medium (D-MEM/F12 with 10% FBS, comprising PS).
After culturing, the medium was exchanged with a medium for differentiation (D-MEM/F12, comprising PS), added with rhIGF-1 (R&D Systems, 291-G1-250, final concentration of 100 ng/ml) and the compound to 1 μM, followed by further culture for three days. Cultured cells were fixed with 4% paraformaldehyde-PBS (manufactured by MUTO PURE CHEMICALS CO., LTD.) and subjected to membrane penetration using 0.1% Triton X-100 PBS, followed by blocking with Block Ace solution (UK-B80, manufactured by Dainippon Sumitomo Pharma Co., Ltd.). As a primary antibody, Anti-neuron-specific class III beta-tubulin antibody (R&D Systems, MAB1195, clone Tuj-1) was used after 1000× dilution. As a secondary antibody, Anti-Mouse Ig, HRP-Linked F (ab′) 2 Fragment Sheep (Amersham Biosciences, NA9310) was used after 10000× dilution. For washing process, the plate washer (BIO-TEK INSTRUMENTS ELX405) was used. For a chromogenic reaction, the reaction was carried out for 10 minutes using TMB Microwell Peroxidase Substrate System (Kirkegaard & Perry Laboratories, 50-76-00), followed by terminating the reaction according to the addition of 1M phosphoric acid. By using the plate reader (Labsystems Multiskan BICHROMATIC), absorbance at 450 nm was measured.
The absorbance for the case in which no compound is added (i.e., control, rhIGF-1 only) was 100%, and the increase ratio of the absorbance for the compound addition (i.e., compound+rhIGF-1) compared to the control was obtained as % control. Activity of the each compound for promoting neuronal differentiation that is measured according to the above method is summarized in Table 9 and Table 10.

In the case of CCOc1ccc(N2CCN(c3c(C)c4c(c(OC)c3C)OC(C)(C)C4)CC2)cc1 [Example 65, 1-(4-Ethoxyphenyl)-4-(7-methoxy-2,2,4,6-tetramethyl-2,3-dihydro-1-benzofuran-5-yl)piperazine], the “Inhibition of Akt degradation (%)” value (Akt protein) was 121.0% and the activity at 1 µM (rat mixed glial culture) was over 500%.

With COc1ccc(N2CCN(c3c(C)c(C)c4c(c3C)CC(C)O4)CC2)cc1 (stereo not shown) [Example 20, 1-(4-Methoxyphenyl)-4-[2,4,6,7-tetramethyl-2,3-dihydro-1-benzofuran-5-yl]piperazine] the “Inhibition of Akt degradation (%)” value (Akt protein) was 73.9% and the activity at 1 µM (rat mixed glial culture) was 187%.

For COc1ccc(N2CCN(c3c(C)c(C)c4c(c3C)C[C@@H](C)O4)CC2)cc1 [Example 21, 1-(4-Methoxyphenyl)-4-[(2R)-2,4,6,7-tetramethyl-2,3-dihydro-1-benzofuran-5-yl]piperazine], the “Inhibition of Akt degradation (%)” value (Akt protein) was 121.3% and the activity at 1 µM (rat mixed glial culture) was 212%.

Molecule COc1ccc(N2CCN(c3cc4c(cc3-c3ccc(C)cc3)OC(C)(C)C4)CC2)cc1 [Example 2, 1-[2,2-Dimethyl-6-(4-methylphenyl)-2,3-dihydro-1-benzofuran-5-yl]-4-(4-methoxyphenyl)piperazine] has an activity at 1 µM (rat mixed glial culture) of 432%.

Work on COc1ccc(N2CCN(c3c(C)c(C)c4c(c3C3CC3)CC(C)(C)O4)CC2)cc1 [Example 7, 1-(4-Cyclopropyl-2,2,6,7-tetramethyl-2,3-dihydro-1-benzofuran-5-yl)-4-(4-methoxyphenyl)piperazine] yielded an activity at 1 µM (rat mixed glial culture) of 325%.

COc1ccc(N2CCN(c3c(C)c(C)c4c(c3C)CC(C)(C)O4)CC2)cc1F [Example 32, 1-(3-Fluoro-4-methoxyphenyl)-4-(2,2,4,6,7-pentamethyl-2,3-dihydro-1-benzofuran-5-yl)piperazine] gave an activity at 1 µM (rat mixed glial culture) of over 500%.

For C=Cc1c2c(c(C)c(C)c1N1CCN(c3ccc(OC)cc3)CC1)OC(C)(C)C2 [Example 8, 1-(4-Ethenyl-2,2,6,7-tetramethyl-2,3-dihydro-1-benzofuran-5-yl)-4-(4-methoxyphenyl)piperazine], the activity at 1 µM (rat mixed glial culture) was 242%.

In the case of COc1ccc(N2CCN(c3c(C)c(C)c4c(c3C)CC(C)(C)O4)CC2)cc1OC [Example 37, 1-(3,4-Dimethoxyphenyl)-4-(2,2,4,6,7-pentamethyl-2,3-dihydro-1-benzofuran-5-yl)piperazine], the activity at 1 µM (rat mixed glial culture) was over 500%.

Work on CCOc1ccc(N2CCN(c3c(C)c4c(c(OCC)c3C)OC(C)C4)CC2)cc1 (stereo not shown) [Example 61, 1-(4-Ethoxyphenyl)-4-(7-ethoxy-2,4,6-trimethyl-2,3-dihydro-1-benzofuran-5-yl)piperazine] yielded an activity at 1 µM (rat mixed glial culture) of over 500%.

In the case of COc1ccc(N2CCN(c3c(C)c(C)c4c(c3C)CC(C)(CO)O4)CC2)cc1 (single isomer, unassigned; (-)) [Example 143, (−)-{5-[4-(4-methoxyphenyl)piperazin-1-yl]-2,4,6,7-tetramethyl-2,3-dihydro-1-benzofuran-2-yl}methanol], the “Increase Ratio of the Absorbance (% control)” value (rat mixed glial culture) was over 500 % control.

Work on COc1ccc(C2CN(c3c(C)c(C)c4c(c3C)CC(C)(C)O4)CCO2)cc1 (stereo not shown) [Example 15, 2-(4-Methoxyphenyl)-4-(2,2,4,6,7-pentamethyl-2,3-dihydro-1-benzofuran-5-yl)morpholine] yielded an activity at 1 µM (rat mixed glial culture) of 332%.

Work on CC(=O)c1ccc(N2CCN(c3c(C)c(C)c4c(c3C)CC(C)(C)O4)CC2)cc1 [Example 95, 1-{4-[4-(2,2,4,6,7-Pentamethyl-2,3-dihydro-1-benzofuran-5-yl)piperazin-1-yl]phenyl}ethanone] yielded an activity at 1 µM (rat mixed glial culture) of 405%.

For CCOc1c(C)c(N2CCN(c3ccc(OC)cc3)CC2)c(C)c2c1OC(C)(C)C2 [Example 46, 1-(7-Ethoxy-2,2,4,6-tetramethyl-2,3-dihydro-1-benzofuran-5-yl)-4-(4-methoxyphenyl)piperazine], the activity at 1 µM (rat mixed glial culture) was 221%.

With Cc1c(C)c(N2CCN(c3ccc(F)cc3)CC2)c(C)c2c1OC(C)(C)C2 [Example 41, 1-(4-Fluorophenyl)-4-(2,2,4,6,7-pentamethyl-2,3-dihydro-1-benzofuran-5-yl)piperazine] the activity at 1 µM (rat mixed glial culture) was over 500%.

In the case of COc1c(C)c(N2CCN(c3ccc(C)cc3)CC2)c(C)c2c1OC(C)(C)C2 [Example 62, 1-(7-Methoxy-2,2,4,6-tetramethyl-2,3-dihydro-1-benzofuran-5-yl)-4-(4-methylphenyl)piperazine], the activity at 1 µM (rat mixed glial culture) was over 500%.

With COc1ccc(N2CCN(c3c(C)c(C)c4c(c3C)CC(C)(C)O4)CC2)c(OC)c1 [Example 1, 1-(2,4-Dimethoxyphenyl)-4-(2,2,4,6,7-pentamethyl-2,3-dihydro-1-benzofuran-5-yl)piperazine] the “Inhibition of Akt degradation (%)” value (Akt protein) was 73.3% and the activity at 1 µM (rat mixed glial culture) was 407%.

In the case of COc1ccc(N2CCN(c3c(C)c(C)c4c(c3-c3ccc(N(C)C)cc3)CC(C)(C)O4)CC2)cc1 [Example 5, 4-{5-[4-(4-Methoxyphenyl)piperazin-1-yl]-2,2,6,7-tetramethyl-2,3-dihydro-1-benzofuran-4-yl}-N,N-dimethylaniline], the activity at 1 µM (rat mixed glial culture) was 488%.

Molecule COc1cc(N2CCN(c3c(C)c(C)c4c(c3C)CC(C)(C)O4)CC2)ccc1F [Example 38, 1-(4-Fluoro-3-methoxyphenyl)-4-(2,2,4,6,7-pentamethyl-2,3-dihydro-1-benzofuran-5-yl)piperazine] has an activity at 1 µM (rat mixed glial culture) of 294%.
